Experimental findings from patent US7598258B2, “Quinoline derivatives and quinazoline derivatives inhibiting autophosphorylation of macrophage colony stimulating factor receptor” (Kirin Beer Kabushiki Kaisha, priority 2002, dated 2009) are described below.

The assay addresses T1, Human KDR (Homo sapiens, UniProt P35968).
T1 construct: expressed in transfected cells; host or cells: NIH3T3 cells (mouse fibroblasts)
Description: Inhibition of KDR phosphorylation in human KDR-transfected NIH3T3 cells (ELISA). Format: cell-based. The following applies: for Selection ratio (KDR phosphorylation IC50 / c-fms phosphorylation IC50): class 0-3; for pIC50: human KDR-transfected NIH3T3 cells, VEGF 100 ng/ml, ELISA, read-out: KDR phosphorylation 50% inhibitory concentration (IC50). The essentials:
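NIH3T3 cells transfected with human KDR, in 0.1% FCS medium, treated with compound 1 hr at 37° C, then stimulated with VEGF 100 ng/ml for 2 min. Lysate KDR phosphorylation measured by anti-phosphotyrosine capture/anti-KDR ELISA (A450); IC50 from inhibition normalized between VEGF-stimulated and unstimulated wells.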
For orientation: ELISA stands for enzyme-linked immunosorbent assay.

pIC50: −log10 of the molar value.

T1 sequence (P35968 20-1356): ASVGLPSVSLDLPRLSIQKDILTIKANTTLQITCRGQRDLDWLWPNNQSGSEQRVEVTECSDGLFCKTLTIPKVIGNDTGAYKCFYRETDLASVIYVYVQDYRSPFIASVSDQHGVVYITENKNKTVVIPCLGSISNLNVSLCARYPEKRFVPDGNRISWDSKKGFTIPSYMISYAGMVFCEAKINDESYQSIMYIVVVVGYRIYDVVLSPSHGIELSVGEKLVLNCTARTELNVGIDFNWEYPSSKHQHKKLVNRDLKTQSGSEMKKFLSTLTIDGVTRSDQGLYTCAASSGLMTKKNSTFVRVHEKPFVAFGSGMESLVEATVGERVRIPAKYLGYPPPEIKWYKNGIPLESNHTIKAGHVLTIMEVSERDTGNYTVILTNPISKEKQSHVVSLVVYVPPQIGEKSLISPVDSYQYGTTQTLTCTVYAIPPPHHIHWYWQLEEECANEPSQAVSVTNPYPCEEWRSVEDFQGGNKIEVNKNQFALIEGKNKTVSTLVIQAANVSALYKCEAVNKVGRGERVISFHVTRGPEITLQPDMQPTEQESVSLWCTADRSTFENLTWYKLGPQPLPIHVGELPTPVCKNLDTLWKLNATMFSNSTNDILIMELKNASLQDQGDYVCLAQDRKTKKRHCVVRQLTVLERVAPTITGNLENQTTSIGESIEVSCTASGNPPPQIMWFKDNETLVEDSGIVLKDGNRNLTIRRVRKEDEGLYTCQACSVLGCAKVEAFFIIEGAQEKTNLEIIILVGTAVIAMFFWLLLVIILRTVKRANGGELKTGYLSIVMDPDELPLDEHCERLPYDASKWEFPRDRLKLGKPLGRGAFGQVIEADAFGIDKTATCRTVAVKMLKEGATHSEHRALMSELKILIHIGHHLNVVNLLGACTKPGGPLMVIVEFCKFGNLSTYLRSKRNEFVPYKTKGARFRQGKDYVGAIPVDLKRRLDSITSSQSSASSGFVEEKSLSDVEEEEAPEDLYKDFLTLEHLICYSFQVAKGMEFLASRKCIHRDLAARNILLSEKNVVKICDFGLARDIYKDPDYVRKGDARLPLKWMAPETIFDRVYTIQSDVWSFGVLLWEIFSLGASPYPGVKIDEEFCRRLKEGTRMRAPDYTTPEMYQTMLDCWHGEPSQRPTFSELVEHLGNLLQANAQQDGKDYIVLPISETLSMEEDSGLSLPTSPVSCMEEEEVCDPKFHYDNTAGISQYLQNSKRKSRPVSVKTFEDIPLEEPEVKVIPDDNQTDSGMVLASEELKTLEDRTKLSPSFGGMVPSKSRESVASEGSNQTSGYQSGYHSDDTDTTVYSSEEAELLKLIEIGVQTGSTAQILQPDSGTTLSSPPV

Regarding `COc1cc2nccc(Oc3ccc(NC(=O)N[C@@H](C)c4cccc(Br)c4)cc3)c2cc1OC` [Example 46, N-[(1S)-1-(3-Bromophenyl)ethyl]-N′-{4-[(6,7-dimethoxy-4-quinolyl)oxy]phenyl}urea], the “Selection ratio (KDR phosphorylation IC50 / c-fms phosphorylation IC50)” value is 3 (when the value was 50 or more) and the pIC50 is 6.29.
Taken in the same sequence, the figures for `COc1cc2nccc(Oc3ccc(NC(=O)N[C@H](C)c4ccc([N+](=O)[O-])cc4)cc3)c2cc1OC` [Example 36, N-{4-[(6,7-Dimethoxy-4-quinolyl)oxy]phenyl}-N′-[(1R)-1-(4-nitrophenyl)ethyl]urea] were 0 (KDR phosphorylation 50% inhibitory concentration [μM]/c-fms phosphorylation 50% inhibitory concentration [μM] was less than 5) and 6.87.
Consider `COc1cc2nccc(Oc3ccc(NC(=O)N[C@@H](C)c4ccc(C)cc4)cc3)c2cc1OC` [Example 41, N-{4-[(6,7-Dimethoxy-4-quinolyl)oxy]phenyl}-N′-[(1S)-1-(4-methylphenyl)ethyl]urea], for which the “Selection ratio (KDR phosphorylation IC50 / c-fms phosphorylation IC50)” value is listed as 1 (when the value was 5 or more) and the pIC50 is 7.73.
Regarding `COc1cc2nccc(Oc3ccc(NC(=O)N[C@@H](C)c4ccc(Cl)cc4)cc3)c2cc1OC` [Example 47, N-[(1S)-1-(4-Chlorophenyl)ethyl]-N′-{4-[(6,7-dimethoxy-4-quinolyl)oxy]phenyl}urea], the “Selection ratio (KDR phosphorylation IC50 / c-fms phosphorylation IC50)” value is reported as 3 (when the value was 50 or more) and the pIC50 was 6.51.
Taken in the same sequence, the figures for `COc1cc2nccc(Oc3ccc(NC(=O)N[C@H](C)c4ccc(Cl)cc4)cc3)c2cc1OC` [Example 48, N-[(1R)-1-(4-Chlorophenyl)ethyl]-N′-{4-[(6,7-dimethoxy-4-quinolyl)oxy]phenyl}urea] were 0 (KDR phosphorylation 50% inhibitory concentration [μM]/c-fms phosphorylation 50% inhibitory concentration [μM] was less than 5) and 8.57.
Taken in the same sequence, the figures for `COc1cccc([C@H](C)NC(=O)Nc2ccc(Oc3ccnc4cc(OC)c(OC)cc34)cc2)c1` [Example 49, N-{4-[(6,7-Dimethoxy-4-quinolyl)oxy]phenyl}-N′-[(1S)-1-(3-methoxyphenyl)ethyl]urea] were 2 (when the value was 10 or more) and 7.34.
In the same order, the values of `COc1cc2nccc(Oc3ccc(NC(=O)N[C@H](C)c4ccc(C)cc4)cc3)c2cc1OC` [Example 42, N-{4-[(6,7-Dimethoxy-4-quinolyl)oxy]phenyl}-N′-[(1R)-1-(4-methylphenyl)ethyl]urea] are 0 (KDR phosphorylation 50% inhibitory concentration [μM]/c-fms phosphorylation 50% inhibitory concentration [μM] was less than 5) and 7.78.
Consider `COc1cc2nccc(Oc3ccc(NC(=O)N[C@@H](C)c4ccc(F)cc4)cc3)c2cc1OC` [Example 2, N-{4-[(6,7-Dimethoxy-4-quinolyl)oxy]phenyl}-N′-[(1S)-1-(4-fluorophenyl)ethyl]urea], for which the “Selection ratio (KDR phosphorylation IC50 / c-fms phosphorylation IC50)” value is listed as 2 (when the value was 10 or more) and the pIC50 was 7.49.
Taken in the same sequence, the figures for `COc1cc2nccc(Oc3ccc(NC(=O)N[C@H](C)c4cccc(Br)c4)cc3)c2cc1OC` [Example 45, N-[(1R)-1-(3-Bromophenyl)ethyl]-N′-{4-[(6,7-dimethoxy-4-quinolyl)oxy]phenyl}urea] were 0 (KDR phosphorylation 50% inhibitory concentration [μM]/c-fms phosphorylation 50% inhibitory concentration [μM] was less than 5) and 8.60.
In the same order, the values of `COc1cc2nccc(Oc3ccc(NC(=O)N[C@@H](C)c4ccc([N+](=O)[O-])cc4)cc3)c2cc1OC` [Example 35, N-{4-[(6,7-Dimethoxy-4-quinolyl)oxy]phenyl}-N′-[(1S)-1-(4-nitrophenyl)ethyl]urea] are 2 (when the value was 10 or more) and 6.51.
In the same order, the values of `COc1cccc([C@@H](C)NC(=O)Nc2ccc(Oc3ccnc4cc(OC)c(OC)cc34)cc2)c1` [Example 50, N-{4-[(6,7-Dimethoxy-4-quinolyl)oxy]phenyl}-N′-[(1R)-1-(3-methoxyphenyl)ethyl]urea] are 0 (KDR phosphorylation 50% inhibitory concentration [μM]/c-fms phosphorylation 50% inhibitory concentration [μM] was less than 5) and 7.55.
`COc1cc2nccc(Oc3ccc(NC(=O)N[C@H](C)c4ccc(F)cc4)cc3)c2cc1OC` [Example 3, N-{4-[(6,7-Dimethoxy-4-quinolyl)oxy]phenyl}-N′-[(1R)-1-(4-fluorophenyl)ethyl]urea]: the “Selection ratio (KDR phosphorylation IC50 / c-fms phosphorylation IC50)” value was 0 (KDR phosphorylation 50% inhibitory concentration [μM]/c-fms phosphorylation 50% inhibitory concentration [μM] was less than 5) and the pIC50 is more than 9.00.
